Literature values, collected in patent US9950023B1, “Composition for the treatment of acne” (Parham Tabibian, MD, Inc., priority 2014, dated 2018).

Key:
P. acnes biofilm = conditions: clinical tests, trans Resveratrol extracts
interleukin-8 (IL-8) = conditions: dose-dependent manner
[1] = tested on: biofilm-associated P. acnes; conditions: in vitro; concentrations as given in the label

Oc1ccc(C=Cc2cc(O)cc(O)c2)cc1 [Resveratrol]
inhibition of P. acnes biofilm formation (P. acnes biofilm): 99.2%

NC(=O)c1cccnc1 [Nicotinamide]
interleukin-8 (IL-8) production (interleukin-8 (IL-8)): decreasing interleukin-8 (IL-8) production in a dose-dependent manner

Oc1cc(Cl)ccc1Oc1ccc(Cl)cc1Cl [0.1% triclosan, triclosan]
reducing biofilm mass [1]: effective
